Measurements published in US20230117034A1, “PYRAZOLOTRIAZINES” (Bayer Aktiengesellschaft, priority 2019, published 2023).
pIC50: −log10 of the molar value.

Columns and labels:
[1] = biological target: CDK12/CycK (Homo sapiens, UniProt Q9NYV4); experiment: CDK12/CycK high ATP kinase assay (TR-FRET, 2 mM ATP); type: biochemical; details: 2 mM ATP (high ATP); median; read-out: CDK12/CyclinK, 2 mM ATP (high ATP), IC50-[mol/l] (median)
How it was run: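 His-tagged human CDK12/CycK (~0.75 nM) pre-incubated 15 min with compound, then 60 min at 22 °C with 2 mM ATP and 1 µM biotinylated peptide (HEPES pH 7.5, 20 mM MgCl2). EDTA stop; phospho-Ser62 antibody/Eu anti-rabbit and streptavidin-XL665 TR-FRET, 665/620 nm ratio normalised to give IC50.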

[2] = system: BRCA1 mRNA expression in MDA-MB-231 cells; experiment: qRT-PCR assay: BRCA1 mRNA expression in MDA-MB-231; type: cell-based, human; details: Homo sapiens, MDA-MB-231, Inhibition of BRCA1 mRNA expression in MDA-MB-231 cells; median; read-out: RTqPCR-MDA-MB-231, IC50, BRCA1 (median)
How it was run: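 MDA-MB-231 cells, 200,000/well, treated 24 h after plating with continuous 24 h compound exposure. RNA extracted, 600 ng reverse-transcribed, BRCA1 measured by RT-qPCR normalized to GAPDH.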

Sequence of CDK12/CycK (Q9NYV4 with tags, fused parts or gaps): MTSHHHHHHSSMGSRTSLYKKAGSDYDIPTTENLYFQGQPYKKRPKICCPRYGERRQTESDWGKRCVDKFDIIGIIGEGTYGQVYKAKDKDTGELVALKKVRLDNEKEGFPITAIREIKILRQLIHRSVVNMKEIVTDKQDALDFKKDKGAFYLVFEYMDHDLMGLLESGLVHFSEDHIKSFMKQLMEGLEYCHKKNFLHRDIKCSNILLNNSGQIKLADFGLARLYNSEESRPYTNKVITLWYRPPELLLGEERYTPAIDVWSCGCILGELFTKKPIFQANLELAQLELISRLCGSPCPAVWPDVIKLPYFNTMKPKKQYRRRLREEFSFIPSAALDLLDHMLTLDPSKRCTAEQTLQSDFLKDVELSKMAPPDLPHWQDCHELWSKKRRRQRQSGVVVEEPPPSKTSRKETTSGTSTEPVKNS
Sequence of CDK12/CycK (O75909 1-300 partner limits assumed): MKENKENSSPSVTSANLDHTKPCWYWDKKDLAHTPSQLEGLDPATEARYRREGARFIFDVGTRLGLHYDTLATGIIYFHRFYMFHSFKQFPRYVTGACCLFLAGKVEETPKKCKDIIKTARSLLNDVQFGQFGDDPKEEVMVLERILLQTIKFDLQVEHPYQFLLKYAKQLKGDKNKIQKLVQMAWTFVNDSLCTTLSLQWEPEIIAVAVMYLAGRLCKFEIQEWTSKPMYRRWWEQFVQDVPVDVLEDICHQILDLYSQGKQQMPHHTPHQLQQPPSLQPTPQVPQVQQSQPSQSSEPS

For C[C@@H]1CN(c2nc(NCc3nc4ccccc4[nH]3)n3ncc(Br)c3n2)C[C@H](C)O1 [Example 73, N-[(1H-benzimidazol-2-yl)methyl]-8-bromo-2-[(2R,6S)-2,6-dimethylmorpholin-4-yl]pyrazolo[1,5-a][1,3,5]triazin-4-amine], the pIC50 [1] was 6.18 and the pIC50 [2] was 7.31.

OC[C@H]1CCCCN1c1nc(NCc2nnc(-c3ccccc3)[nH]2)n2ncc(Br)c2n1 [Example 71, [(2R)-1-(8-bromo-4-{[(5-phenyl-4H-1,2,4-triazol-3-yl)methyl]amino}pyrazolo[1,5-a][1,3,5]triazin-2-yl)piperidin-2-yl]methanol] showed a pIC50 [1] of 5.36 and a pIC50 [2] of 7.68.

In the case of Brc1cnn2c(NCc3nnc(-c4ccccc4)[nH]3)nc(N3CCCC3)nc12 [Example 64, 8-bromo-N-[(5-phenyl-4H-1,2,4-triazol-3-yl)methyl]-2-(pyrrolidin-1-yl)pyrazolo[1,5-a][1,3,5]triazin-4-amine], the pIC50 [1] was 5.26 and the pIC50 [2] was 7.55.

With CC(C)c1cnn2c(NCc3nc4ccccc4[nH]3)nc(N3CCOCC3)nc12 [Example 1, N-[(1H-benzimidazol-2-yl)methyl]-2-(morpholin-4-yl)-8-(propan-2-yl)pyrazolo[1,5-a][1,3,5]triazin-4-amine] the pIC50 [1] was 5.22 and the pIC50 [2] was 7.78.

Work on Fc1ccccc1-c1cnc(CNc2nc(N3CCOCC3)nc3c(Br)cnn23)[nH]1 [Example 86, 8-bromo-N-{[5-(2-fluorophenyl)-1H-imidazol-2-yl]methyl}-2-(morpholin-4-yl)pyrazolo[1,5-a][1,3,5]triazin-4-amine] yielded a pIC50 [1] of 5.72 and a pIC50 [2] of 7.77.

In the case of COc1ccccc1-c1cnc(CNc2nc(N3CCOCC3)nc3c(Br)cnn23)[nH]1 [Example 87, 8-bromo-N-{[5-(2-methoxyphenyl)-1H-imidazol-2-yl]methyl}-2-(morpholin-4-yl)pyrazolo[1,5-a][1,3,5]triazin-4-amine], the pIC50 [1] was 5.59 and the pIC50 [2] was 7.97.

Work on Clc1ccc(-c2cnc(CNc3nc(N4CCOCC4)nc4c(Br)cnn34)[nH]2)cc1 [Example 72, 8-bromo-N-{[5-(4-chlorophenyl)-1H-imidazol-2-yl]methyl}-2-(morpholin-4-yl)pyrazolo[1,5-a][1,3,5]triazin-4-amine] yielded a pIC50 [1] of 6.26 and a pIC50 [2] of 7.41.

In the case of Brc1cnn2c(NCc3ncc(-c4cccnc4)[nH]3)nc(N3CCOCC3)nc12 [Example 84, 8-bromo-2-(morpholin-4-yl)-N-{[5-(pyridin-3-yl)-1H-imidazol-2-yl]methyl}pyrazolo[1,5-a][1,3,5]triazin-4-amine], the pIC50 [1] was 5.68 and the pIC50 [2] was 6.93.

Fc1cccc(-c2cnn3c(NCc4nc5ccccc5[nH]4)nc(N4CCOCC4)nc23)c1 [Example 91, N-[(1H-benzimidazol-2-yl)methyl]-8-(3-fluorophenyl)-2-(morpholin-4-yl)pyrazolo[1,5-a][1,3,5]triazin-4-amine] gave a pIC50 [1] of under 4.24 and a pIC50 [2] of 7.07.

COc1cccc(-c2cnc(CNc3nc(N4CCOCC4)nc4c(Br)cnn34)[nH]2)c1 [Example 80, 8-bromo-N-{[5-(3-methoxyphenyl)-1H-imidazol-2-yl]methyl}-2-(morpholin-4-yl)pyrazolo[1,5-a][1,3,5]triazin-4-amine] gave a pIC50 [1] of 5.93 and a pIC50 [2] of 7.74.
